Results from US7291337B2, “Peptide having an affinity for gp120” (Aspion Co., Ltd., priority 2000, dated 2007).

Assays:
gp120 = gp120 (Human immunodeficiency virus type 1 group M subtype B, UniProt P03375); settings: peptide conjugated latex beads; for Agglutinin test, Colloidal gold conjugated gp120: protein contents 1 μg/ml; for Agglutinin test, gp120 protein: unlabelled gp120, contents 1 μg/ml
[1] = molecular target: HIV-1-gp120 (Immuno Diagnosis Co.), horseradish peroxidase labeled and enzyme unlabeled (HIV-1); assay: Scatchard plot; HRP-labeled and unlabeled gp120 added to peptide carrier
[2] = molecular target: HIV-1 kk-1 (virus; gp120 on it) (HIV-1 kk-1); assay: column absorption of KK-1 virus in human serum; p24 antigen ELISA of lysed bound virus (starting material 2,350)
[3] = molecular target: HIV-1 kk-1 (virus; gp120 on it) (HIV-1 kk-1); assay: column absorption of KK-1 virus in human serum; p24 antigen ELISA
[4] = test system: KK-1 (freshly isolated HIV); assay: Investigation of neutralizing activity of HIV-1 (CPE in MT-4 cells), KK-1; type: cell-based; settings: content to inhibit infection (CPE), 6 days, NE = no effect
Excerpt: (§1) Then, we used AZT as a positive control.

[5] = test system: HTLV-IIIB (laboratory strain); assay: Investigation of neutralizing activity of HIV-1 (CPE in MT-4 cells), HTLV-IIIB; type: cell-based; settings: content to inhibit infection (CPE), 6 days, NE = no effect
Excerpt: as §1

[6] = test system: serum of hepatitis C or B patients, laboratory strain and freshly isolated strain, virus lysate conjugated colloidal gold; assay: Specificity test with peptide conjugated latex beads against viruses (Table 17); type: binding
Excerpt: The virus that was in use in this enforcement example was serum, laboratory strain and a freshly isolated strain that was gathered from patients of hepatitis C or B at final stage. Then, we used virus lysate that conjugated colloidal gold as previously.

[7] = Sample/Virus No. 1: HIV-1 IIIB, 1.0 × 10^5 TCID50
[8] = Sample/Virus No. 2: HIV-1 Lav 1, 1.0 × 10^5 TCID50
[9] = Sample/Virus No. 3: HIV-1 kk-1, 1.0 × 10^4.5 TCID50
[10] = Sample/Virus No. 4: HIV-2 Lav2, 1.0 × 10^6 TCID50
[11] = Sample/Virus No. 5: Serum of HCV patients, titer indistinct
[12] = Sample/Virus No. 6: Serum of HBV patients, titer indistinct
[13] = Sample/Virus No. 7: Hepatitis B surface antigen(HbsAg), 1.6 × 10^5 units
[14] = Sample/Virus No. 8: Valaricella Zoster valirus, 9.5 × 10^5 units
[15] = Sample/Virus No. 9: Argubella Zoster valirus (VZV), 4.9 × 10^5 units
[16] = Sample/Virus No. 10: HTLV-1 virul lysate, 1.1 × 10^5 units
[17] = Sample/Virus No. 11: human cytomegalovirus (HCMV), 5.5 × 10^5 units
[18] = Sample/Virus No. 12: Epstein-Barr virus(EB virus), 9.9 × 10^5 units

With Asp-Val-Lys-Ala-Gly [No. 1 in Table 1] the “Agglutinin test, Colloidal gold conjugated gp120” value (gp120) was “Presence” and the “Agglutinin test, gp120 protein” value (gp120) was “Absence”.
Substance “No. 1 peptide of Table 1 (Asp-Val-Lys-Ala-Gly) bound to Sephadex 6MB” has a Kd [1] of 0.214 nM.
“No. 12 peptide of Table 3 (Tyr-Tyr-Lys-Ala-Ala) bound to Sephadex 4B” was tested, and the Kd [1] was 0.497 nM.
“No. 12 peptide of Table 3 (Tyr-Tyr-Lys-Ala-Ala) bound to cellulose type carrier” was tested, and the p24(S/CO), fraction of column absorption [2] was 205 S/CO and the percent of supplied virus absorbed [3] was < 10%.
With “Phe-Arg-Lys-Ala-Ala (FRKAA; printed: Phe-Arg-Lys-Ala-Ala) [No. 8 in Table 3]” the “Anti-HIV neutralizing activity (μg/ml) KK-1” value [4] was 125 µg/mL and the “Anti-HIV neutralizing activity (μg/ml) HTLV-IIIB” value [5] was 125 µg/mL.
With Table 1 No. 1 (DVKAG) the Presence of agglutinin [6, 7] was “+”, the Presence of agglutinin [6, 8] was “+” and the Presence of agglutinin [6, 9] was “+”. For the same substance, the Presence of agglutinin [6, 10] was “−”, the Presence of agglutinin [6, 11] was “−” and the Presence of agglutinin [6, 12] was “−”. The Presence of agglutinin [6, 13] was “−”, the Presence of agglutinin [6, 14] was “−” and the Presence of agglutinin [6, 15] was “−”. For the same substance, the Presence of agglutinin [6, 16] was “−”, the Presence of agglutinin [6, 17] was “−” and the Presence of agglutinin [6, 18] was “−”.
In the case of Table 3 No. 6 (WWKAA), the Presence of agglutinin [6, 7] is reported as “+”, the Presence of agglutinin [6, 8] is reported as “+” and the Presence of agglutinin [6, 9] is reported as “+”. For the same substance, the Presence of agglutinin [6, 10] was “−”, the Presence of agglutinin [6, 11] was “−” and the Presence of agglutinin [6, 12] was “−”. The Presence of agglutinin [6, 13] was “−”, the Presence of agglutinin [6, 14] was “−” and the Presence of agglutinin [6, 15] was “−”. For the same substance, the Presence of agglutinin [6, 16] was “−”, the Presence of agglutinin [6, 17] was “−” and the Presence of agglutinin [6, 18] was “−”.
In the case of Trp-Trp-Lys-Ala-Ala [No. 6 in Table 3], the “Agglutinin test, Colloidal gold conjugated gp120” value (gp120) is reported as “Presence” and the “Agglutinin test, gp120 protein” value (gp120) is reported as “Absence”.
